From US20040224995A1 (University of North Texas Health Science Center at Fort …, priority 2003, published 2004)

Experiments:
C6 Glioma cells = assay: C6 glioma glutamate cytotoxicity; format: cell-based, rat; settings: dose dependent manner
Experimental: (§1) The in vitro model used for oxidative cell death was based upon glutamate, hydrogen peroxide, and buthionine sulfoximine (“BSO”) administration to HT-22 mouse hippocampal, C6 rat glioma, and RGC-5 retinal ganglion cell lines. The ease that the above cell lines are cultured is well known in the art of cell culture. Additionally, these cell lines are suitable for screening a various number of compounds described in the present invention.
(§2) Although not wanting to be bound by theory, the toxicity of glutamate in HT-22 (32) and C6 glioma (33) cell lines is mediated through oxidative stress. HT-22 cells lack ionotropic N-methyl-D-aspartate (“NMDA”) glutamate receptors, and the glutamate-induced cell death appears to occur via a slow onset oxidative stress (32,34,35). Glutamate blocks cystine uptake by inhibiting the glutamate/cystine antiporter in both HT-22 (32) and C6 glioma (33) cell lines. […] In some of the experiments, the viability of cells was determined using 2.5 μM calcein AM assay in phosphate-buffered saline (PBS 1×). After 25 minutes of incubation, live cells were distinguished by the presence of intracellular esterase activity, which cleaves the calcein AM dye, producing a bright green fluorescence, as shown in FIG. 22. Viability was measured in Relative Fluorescent Units (“RFU”), and expressed as percentage of vehicle-treated control values. […]

RGC-5 cells = assay: RGC-5 glutamate cytotoxicity; format: cell-based; settings: dose dependent manner
Experimental: as §1, §2

[1] = system: γ-glutamyl-cysteine synthetase (GCS) catalytic and regulatory subunits; assay: Western blot of GCS subunits in HT-22 cells; format: cell-based, mouse; settings: compound 24 h before glutamate or H2O2, also independent of glutamate
Experimental: Determining γ-glutamylcysteine synthetase (“GCS”) protein levels was determined using Western blotting analysis, as shown in FIGS. 28 and 29. Antibodies against the heavy (catalytic) and light (regulatory) subunits, GCSH and GCSL, respectively, were ordered from Santa Cruz Biotechnology, Santa Cruz, Calif. Anti-β-actin polyclonal antibody was obtained from Biomedical Technologies Inc. (Stoughton, Mass.). Cyclopentenone PGs treated and untreated HT-22, C6, and RGC-5 cells were homogenized in a buffer containing 20 mM HEPES, pH 7.4, 2 mM […], 1 mM EGTA, […], 2 mm DTE, and […] aprotonin. Cells were sonicated to disrupt cell membranes, and Triton X-100 was added to a final concentration of 0.05% to solubilize membrane bound proteins. Equal amounts of proteins, as determined by the Bradford method, were separated by SDS-PAGE and transferred to polyvinylidene fluoride membrane (Millipore, Bedford, Mass.) in a BiORad (Hercules, Calif.) trans-Blot electrophoresis apparatus at 100 V for 2 hr using Towbin's buffer [25 mm Tris, pH 8.3, 192 mM glycine, and 20% methanol]. […] Equal amounts of proteins, as determined by the Bradford method, were separated by SDS-PAGE and transferred to PVDF membrane. […] […]

HT-22 cells = assay: HT-22 cell viability during BSO exposure; format: cell-based, mouse
Experimental: as §1, §2

CCCCC/C=C/C=C1/C(=O)C=C[C@@H]1C/C=C\CCCC(=O)O [15d-PGJ2, 15-deoxy-Δ^12,14-PGJ2]
protection against glutamate toxicity (C6 Glioma cells): protected | protection against glutamate toxicity (RGC-5 cells): protected | expression of catalytic (C) and regulatory (R) subunits of GCS [1]: upregulates

Cc1c(C)c2c(c(C)c1O)CCC(C)(COc1ccc(CC3SC(=O)NC3=O)cc1)O2 (stereo not drawn) [troglitazone]
protection against glutamate toxicity (C6 Glioma cells): protected | protection against glutamate toxicity (RGC-5 cells): protected | protection against BSO (HT-22 cells): protected
